Results published in patent US20070265451A1, “Process for the preparation of oxazolidinones and method of use thereof” (Board of Trustees of Michigan State University, priority 2001, published 2007).
In brackets after ≈: the same amount, converted by molar mass.

Key:
[1] = system: Staphylococcus aureus 29213; test: Broth microdilution MIC, Staphylococcus aureus ATCC 29213; assay type: cell-based; settings: Staphylococcus aureus, ATCC29213, Table 2; read-out: MIC(90-100) SA-ATCC 29213
Description: See, NCCLS document M7-A5. Methods for Dilution Antimicrobial Susceptibility Tests for Bacteria That Grow Aerobically; Approved Standard-Fifth Edition. Volume 20, Number 2. January 2000, (ISBN 1-56238-394-9) and Lorian V. Antibiotics. Laboratory Medicine. 4th ed. Baltimore: Williams and Wilkins, pp. 52-111 (1996). For subsequent testing, the following strains have been used: Staphylococcus aureus NRS4 (992; HIP5836; New Jersey) (Smith et al., New Engl. J. Med. 340: 493-501 (1999); Tenover et al., J. Clin. Microbiol. 36: 1020-1027 (1998)), Staphylococcus aureus NRS3 (963sm; HIP5827; Michigan) (Smith et al., ibid.; Tenover et al., ibid.), Staphylococcus aureus NRS103 (Becker) (Karakawa and Vann, Sem. Infect. Dis. 4: 285 (1982), Staphylococcus aureus NRS102 (Reynolds) Karakawa and Vann, ibid; McMurray et al., JID 162: 759-762 (1990)), Staphylococcus epidermidis NRS101 (ATCC 35984), Streptococcus pneumoniae (ATCC 49619), Enterococcus faecalis (ATCC 51299), and Staphylococcus aureus (ATCC 43300.
Stock cultures of these strains were obtained by seeding colonies from overnight streak plates (Tryptic Soy Agar II (TSAII) and 5% sheep's blood (SB) agar plates: Becton Dickinson, CA#2211261) into sterile Mueller-Hinton Broth (MHB)(Becton Dickinson, CA#211443) and growing the suspensions to mid-late log phase in 13 mL screw-cap tubes. Glycerol (Sigma, CA#G-6279) was sterilized by autoclaving for 15 minutes at 121° C. in 6 mL volumes, and then stored at 2-8° C. This was diluted to 20% in dH2O, and then added 1:1 (250 μL:250 μL, 10% final glycerol concentration) to the logarithmically growing bacterial suspension of each strain. Tubes were frozen and stored at −70° C. Purity of the stock cultures was tested by thawing one tube of each strain in a water bath at 37° C. and plating them on TSAII with 5% SB. Plates were incubated overnight at 37° C. and colonies were examined for morphology. Growth curves and approximate CFU/mL were also obtained.
High purity substituted oxazolidinones prepared according to the method of the present invention and a ZYVOX standard (ZYVOX is a trade name for linezolid available from Pharmacia Corporation) were provided by Synthon Corporation, Monmouth Junction, N.J. Compounds were dissolved at 10 mg/mL in DMSO, as after a dilution of approx. 39.0 to reach the desired final starting concentration of 256 ug/ml, the concentration of DMSO is approximately 2.5%. Compounds were then stored at room temperature (25° C.) in the dark.
Antimicrobial susceptibility screening was as follows. All compounds were initially screened for activity in duplicate at 256 μg/mL (2.5% DMSO), including ZYVOX, the positive control for antimicrobial activity. A single well of bacterially inoculated 2.5% DMSO served as a positive control for bacterial growth, while a well of DMSO inoculated with of 50 μL of sterile 0.9% saline served as a negative growth control. Controls were prepared on every microplate, so that 46 was the maximum number of compounds that were screened per plate. Broth was pipetted into sterile microcentrifuge tubes, to which the compounds were then added (1:19.53 dilution or 2× final concentration). Each tube was vortexed, and 50 μL was immediately transferred to the microplate wells for each strain. Solubility was assessed by visual observation. MB (medium broth solubility) was recorded if the solution appeared only slightly cloudy. LB (low broth solubility) was recorded if the solution was extremely cloudy, and especially if larger, clumpy precipitates formed. Bacteria were grown as described above, although absorbance was measured at 650 nm and bacteria were diluted to an initial OD of 0.12-0.15. Bacteria were then further diluted 1:100 with 0.9% sterile saline. Within 15 minutes of this final dilution, 50 μL of this suspension was added to each well for a final volume of […], and a final bacterial concentration of 1×10^5 CFU/mL (except for the negative control well). Plates were grown as above and all observations were recorded. […]

[2] = system: Enterococcus faecalis 29212; test: Broth microdilution MIC, Enterococcus faecalis ATCC 29212; assay type: cell-based; settings: Enterococcus faecalis, ATCC29212, Table 2; read-out: MIC(90-100) EF-ATCC 29212

| Compound | MIC [1] [µg/mL] | MIC [2] [µg/mL] |
| --- | --- | --- |
| CCOC(=O)/C=C/N1CC(COS(=O)(=O)c2ccc(Cl)c([N+](=O)[O-])c2)OC1=O (centres unmarked) [Compound 695] | 62.5 (≈ 144 µM) |  |
| CC(C)N1C[C@@H](CNS(=O)(=O)c2ccc([N+](=O)[O-])cc2)OC1=O [Compound 860] | 64 (≈ 186 µM) |  |
| CC(C)N1C[C@@H](CNS(=O)(=O)c2ccc([N+](=O)[O-])cc2[N+](=O)[O-])OC1=O [Compound 870] | 16 (≈ 41.2 µM) |  |
| CCCCN1CC(COS(=O)(=O)c2cccc3nsnc23)OC1=O (centres unmarked) [Compound 905] | 256 (≈ 689 µM) |  |
| CCOC(=O)CC(C)(C)C(=O)CN1C[C@H](COS(=O)(=O)c2ccc([N+](=O)[O-])cc2)OC1=O [Compound 921] | 256 (≈ 542 µM) |  |
| CCC#CCN1C[C@H](COS(=O)(=O)c2ccc(Cl)c3nonc23)OC1=O [Compound 924] | 256 (≈ 640 µM) |  |
| O=C1O[C@@H](COS(=O)(=O)c2ccc([N+](=O)[O-])cc2)CN1C(=O)C1CC1 [Compound 929] | 64 (≈ 173 µM) |  |
| O=C1O[C@@H](COS(=O)(=O)c2ccc([N+](=O)[O-])cc2)CN1C(=O)c1ccco1 [Compound 942] | 32 (≈ 80.7 µM) |  |
| CC(C)N1C[C@H](COS(=O)(=O)c2ccc([N+](=O)[O-])cc2)OC1=O [Compound 952] | 32 (≈ 92.9 µM) |  |
| CC(C)(C)OC(=O)/C=C/N1C[C@@H](COS(=O)(=O)c2ccc([N+](=O)[O-])cc2)OC1=O [Compound 1001] | 64 (≈ 149 µM) | 125 (≈ 292 µM) |
| CN(C)C(=O)CN1C[C@@H](COS(=O)(=O)c2ccc(Cl)c3nonc23)OC1=O [Compound 1026] | 256 (≈ 611 µM) |  |
| COC(=O)CN1C[C@@H](COS(=O)(=O)c2ccc(Cl)c([N+](=O)[O-])c2)OC1=O [Compound 1058] | 256 (≈ 626 µM) |  |
| CC(=O)CN1C[C@@H](COS(=O)(=O)c2ccc([N+](=O)[O-])cc2)OC1=O [Compound 1063] | 16 (≈ 44.7 µM) |  |
| CC(=O)CN1C[C@@H](COS(=O)(=O)c2ccc(Cl)c3nonc23)OC1=O [Compound 1066] | 256 (≈ 657 µM) |  |
| CC(=O)CN1C[C@@H](COS(=O)(=O)c2ccc(Cl)c([N+](=O)[O-])c2)OC1=O [Compound 1081] | 256 (≈ 652 µM) |  |
| CC(=O)OC(C(=O)OC[C@@H]1CN(C)C(=O)O1)c1ccccc1 (some centres unmarked) [Compound 1097] | 32 (≈ 104 µM) |  |
| CCCCN1CC(COS(=O)(=O)c2ccc(Cl)c3nonc23)OC1=O (centres unmarked) [Compound 1141] | 64 (≈ 164 µM) | 128 (≈ 328 µM) |
| CCOC(=O)/C=C/N1C[C@@H](COS(=O)(=O)c2ccc([N+](=O)[O-])cc2)OC1=O [Compound 1160] | 128 (≈ 320 µM) |  |
| CCN1C[C@@H](COS(=O)(=O)c2ccc(Cl)c3nonc23)OC1=O [Compound 1196] | 256 (≈ 708 µM) | 128 (≈ 354 µM) |
| CCN1C[C@@H](COS(=O)(=O)c2ccc(Cl)c([N+](=O)[O-])c2)OC1=O [Compound 1210] | 256 (≈ 702 µM) |  |
| CN(C)C(=O)/C=C/N1C[C@@H](COC(=O)c2cc(Cl)sc2Cl)OC1=O [Compound 1629] | 256 (≈ 651 µM) | 64 (≈ 163 µM) |
| CN(C)C(=O)/C=C/N1C[C@@H](COC(=O)c2csc(-c3ccccc3)n2)OC1=O [Compound 1631] | 16 (≈ 39.9 µM) | 16 (≈ 39.9 µM) |
| CN(C)C(=O)/C=C/N1C[C@@H](COS(=O)(=O)c2ccc([N+](=O)[O-])cc2)OC1=O [Compound 1632] | 16 (≈ 40.1 µM) | 64 (≈ 160 µM) |
| O=C1O[C@@H](COc2cccc3c(O)cccc23)CN1c1ccc([N+](=O)[O-])cc1 [Compound 1960] | 32 (≈ 84.1 µM) | 8 (≈ 21 µM) |
| O=C1O[C@@H](COc2ccc3c4c2CCCN4CCC3)CN1c1ccc([N+](=O)[O-])cc1 [Compound 1965] | 32 (≈ 78.2 µM) | 8 (≈ 19.5 µM) |
| O=C1NCC(COS(=O)(=O)c2ccc([N+](=O)[O-])cc2)O1 (centres unmarked) [Compound 1985] | 8 (≈ 26.5 µM) | 124 (≈ 410 µM) |
